These results are taken from publication PMC9944328 (Nature Communications, 2023).

The test system of this assay is GH3 cells. Description: Cell apoptosis assay, Annexin V-FITC/PI flow cytometry, GH3 cells overexpressing SSTR2, 48 h. The class given is cell-based, rat. (In general: A flow cytometer gives signals particle by particle.)

Method: The rat pituitary GH3 cells (ATCC, CCL-82.1) were seeded in 12-well plates at 1.5 × 10^5/well. […] Then, the cells were collected for the apoptosis assay according to the instruction of the Annexin V-FITC/PI apoptosis detection kit (BD Biosciences). Briefly, the cells were washed with cold PBS and resuspended in 1 × binding buffer. Then, 5 μl of Annexin V-FITC was added and incubated for 10 min and stained with 5 μl of PI for 5 min in the dark at room temperature. All samples were acquired by a Novocyte flow cytometer (ACEA Biosciences, China), and data were analyzed with NovoExpress^TM software.

`C[C@@H](O)[C@@H]1NC(=O)[C@H](CCCCN)NC(=O)[C@@H](Cc2c[nH]c3ccccc23)NC(=O)[C@H](Cc2ccccc2)NC(=O)[C@@H](NC(=O)[C@H](N)Cc2ccccc2)CSSC[C@@H](C(=O)N[C@H](CO)[C@@H](C)O)NC1=O` [octreotide]: the Proapoptotic activity entry was “able to activate proapoptotic pathways”.

For the compound `N#Cc1cccc(-c2ccc3ncc(-c4cc(F)cc(F)c4)c(N4CCC(N)CC4)c3c2)c1O` [paltusotine], the “Apoptotic rate versus octreotide” value is recorded as “increased apoptotic rate” and the Proapoptotic activity entry is “able to activate proapoptotic pathways”.
